Activity calls are given as the source filed them. No cut-off for these calls is given here. Positions of bridges follow the written chain, without caps; N, C: chain ends. Residues, ends and D or L forms follow the SMILES beside them.
Assays:
[1] = Displacement of 5-TAMRA-SRDLFSVTFDLGFCSPDSDD-NH2 from recombinant N-terminal 6His/SUMO-tagged RMI1/2 (unknown origin) extracted from Escherichia coli BL21 (DE3) cells incubated for 1 hrs by competitive fluorescence polarization assay; parameters: species or system Homo sapiens; conditions: for Activity: Homo sapiens
[2] = Binding affinity to N-terminal 6His/Avi-tagged biotinylated RMI1/2 (unknown origin) extracted from Escherichia coli BL21 (DE3) cells assessed as dissociation constant by SPR analysis; parameters: species or system Homo sapiens
[3] = Proteolytic stability in Tris-HCl buffer at pH 7.8 assessed as alpha-chymotrypsin (unknown origin) mediated compound degradation at 20 uM incubated for 5 hrs by HPLC analysis; type: ADME; conditions: human, pH 7.8, 5 h
U2OS = test: Disruption of FANCM-RMI1/2 protein-protein interaction in human U2OS cells assessed as reduction in FANCM pull down at 100 uM incubated for 4 hrs by co-immunoprecipitation based Western blot analysis; type: cell-based
Homo sapiens = organism: Homo sapiens; test: Binding affinity to N-terminal 6His/Avi-tagged biotinylated RMI1/2 (unknown origin) extracted from Escherichia coli BL21 (DE3)cells by SPR analysis

Compound | IC50 [1] [nM] | also measured
CC[C@H](C)[C@H](NC(=O)[C@H](CO)NC(=O)[C@H](Cc1ccc(O)cc1)NC(=O)[C@H](Cc1ccc(O)cc1)NC(=O)[C@H](CCCCN)NC(=O)[C@H](CC(=O)O)NC(=O)[C@H](Cc1ccccc1)NC(=O)[C@H](CC(C)C)NC(=O)[C@H](C)NC(=O)[C@H](CO)NC(=O)[C@H](Cc1ccc(O)cc1)NC(C)=O)C(=O)N1CCC[C@H]1C(=O)N[C@H](CS)C(N)=O | 4500 | 
CC[C@H](C)[C@@H]1NC(=O)[C@H](CC(=O)O)NC(=O)CSC[C@@H](C(N)=O)NC(=O)[C@H](CO)NC(=O)[C@H](Cc2ccccc2)NC(=O)[C@H](Cc2ccc(O)cc2)NC(=O)[C@@H]2CCCN2C(=O)[C@H]([C@@H](C)CC)NC(=O)[C@H](Cc2ccc(O)cc2)NC(=O)[C@H](CO)NC(=O)[C@H](CC(C)C)NC(=O)[C@H](Cc2ccc(O)cc2)NC(=O)[C@H](CCCCN)NC1=O ({CH2CO}-DIKYLSYIPYFSC-NH2; thioether N-13) |  | Activity [1]: inactive
CC[C@H](C)[C@@H]1NC(=O)[C@H](Cc2ccccc2)NC(=O)[C@H](CO)NC(=O)[C@H]([C@@H](C)CC)NC(=O)[C@H](Cc2ccc(O)cc2)NC(=O)[C@H](CC(=O)O)NC(=O)[C@@H]2CCCN2C(=O)[C@H](CCCCN)NC(=O)[C@H](CC(C)C)NC(=O)CSC[C@@H](C(N)=O)NC(=O)[C@H](Cc2ccc(O)cc2)NC(=O)[C@H](Cc2ccc(O)cc2)NC(=O)[C@H](CO)NC1=O ({CH2CO}-LKPDYISFISYYC-NH2; thioether N-13) |  | Activity [1]: inactive
CC[C@H](C)[C@H](NC(=O)[C@H](CC(=O)O)NC(=O)[C@@H]1CSCC(=O)N[C@@H](Cc2ccc(O)cc2)C(=O)N[C@@H](Cc2ccc(O)cc2)C(=O)N[C@@H](CCCCN)C(=O)N2CCC[C@H]2C(=O)N[C@@H]([C@@H](C)O)C(=O)N1)C(=O)N[C@H](C(=O)N[C@@H](CC(C)C)C(=O)N[C@@H](Cc1ccccc1)C(=O)N[C@@H](Cc1c[nH]c2ccccc12)C(=O)N[C@@H](CO)C(N)=O)[C@@H](C)CC ({CH2CO}-YYKPTCDIILFWS-NH2; thioether N-6) | > 5000 | Activity (Homo sapiens): inactive
Ac-ASILFDKYYSIPC-NH2 | 700 | 
Ac-YSIAFDKYYSIPC-NH2 | 496 | 
Ac-YSILADKYYSIPC-NH2 | > 5000 | 
Ac-YSILFAKYYSIPC-NH2 | 440 | 
Ac-YSILFDKAYSIPC-NH2 | 338 | 
Ac-YSILFDKYASIPC-NH2 | > 5000 | 
Ac-YSILFDKYYSAPC-NH2 | 999 | 
Ac-YSILFDKYYSIPC-NH2 | > 5000 | 

Now from value to compound, other results behind:

IC50 [1] [nM] | Compound | also measured
104 | CC[C@H](C)[C@@H]1NC(=O)[C@H](Cc2ccc(O)cc2)NC(=O)CSC[C@@H](C(=O)N[C@@H](CC(C)C)C(=O)N[C@@H](Cc2c[nH]c3ccccc23)C(=O)N[C@@H](CO)C(N)=O)NC(=O)[C@H](Cc2ccccc2)NC(=O)[C@H](CCCCN)NC(=O)[C@H]([C@@H](C)CC)NC(=O)[C@H](C(C)C)NC(=O)[C@H]([C@@H](C)O)NC(=O)[C@H](CC(=O)O)NC(=O)[C@H]([C@@H](C)O)NC(=O)[C@H](Cc2c[nH]c3ccccc23)NC(=O)[C@H](CCCNC(=N)N)NC(=O)[C@H](CC(N)=O)NC(=O)[C@H]([C@@H](C)O)NC1=O ({CH2CO}-YITNRWTDTVIKFCLWS-NH2; thioether N-14) | Kd [2]: 2 nM
78 | CC(C)C[C@@H]1NC(=O)[C@H](CCCNC(=N)N)NC(=O)[C@H](Cc2ccc(O)cc2)NC(=O)CSC[C@@H](C(N)=O)NC(=O)[C@@H]2CCCN2C(=O)[C@H](CC(C)C)NC(=O)[C@H](CCCCN)NC(=O)[C@H](Cc2ccc(O)cc2)NC(=O)[C@H]([C@@H](C)O)NC(=O)[C@H](CCC(N)=O)NC(=O)[C@H](Cc2ccccc2)NC(=O)[C@H](Cc2ccccc2)NC(=O)[C@H](Cc2c[nH]c3ccccc23)NC1=O ({CH2CO}-YRLWFFQTYKLPC-NH2; thioether N-13) | Kd [2]: 10 nM
54 | CC[C@H](C)[C@@H]1NC(=O)[C@H](CO)NC(=O)[C@H](Cc2ccc(O)cc2)NC(=O)CSC[C@@H](C(N)=O)NC(=O)[C@@H]2CCCN2C(=O)[C@H]([C@@H](C)CC)NC(=O)[C@H](CO)NC(=O)[C@H](Cc2ccc(O)cc2)NC(=O)[C@H](Cc2ccc(O)cc2)NC(=O)[C@H](CCCCN)NC(=O)[C@H](CC(=O)O)NC(=O)[C@H](Cc2ccccc2)NC(=O)[C@H](CC(C)C)NC1=O ({CH2CO}-YSILFDKYYSIPC-NH2; thioether N-13) | Stability [3]: Stable; Activity (U2OS): Active; Kd [2]: 2.5 nM
115 | Ac-YAILFDKYYSIPC-NH2 | 
95 | Ac-YSILFDAYYDSIPC-NH2 | 
69 | Ac-YSILFDKYYAIPC-NH2 | 
114 | Ac-YSILFDKYYSIAC-NH2 | 

— ChEMBL document CHEMBL6182932, “Potent Cyclic Peptide Inhibitors Disrupt the FANCM-RMI Interaction” (J Med Chem, 2025)
